Experimental data published in patent publication US4503147A (priority 1981, dated 1985).
Where a name gives a salt, the structure may show the parent alone. Read-outs that look alike come from different tables or passages of the source.

Experiments:
[1] = system: monomethylamine-oxidizing enzyme; experiment: Substrate specificity and Km of the purified monomethylamine-oxidizing enzyme; type: biochemical, Bacillus sp. N - 104 (FERM BP-59); details: for Relative activity: substrate concentration 10 mM, activity for monomethylamine taken as 100
Protocol: […] To 1.0 ml of this substrate solution, is added 0.1 ml of an enzyme solution diluted with the same buffer solution and the mixture is subjected to reaction for 10 min. at 30° C. By adding 1 ml of 5N KOH solution, the enzymatic reaction is stopped. By this enzymatic reaction, monomethylamine is oxidatively decomposed to produce formaldehyde, ammonia and hydrogen peroxide. Then, to the reaction mixture is added 1 ml of 0.5 N hydrochloric acid solution containing 0.5% 4-amino-3-hydrazino-5-mercapto-1,2,4-triazole (to be abbreviated as AHMT hereinafter) and the mixture is subjected to reaction for 15 min. at 30° C. To the reaction mixture is added 1 ml of 0.2 N potassium hydroxide solution containing 0.75% KIO4 and the mixture is thoroughly stirred to develop a color. The colored solution is poured into a transparent cell and its absorption at 550 nm is measured to quantitatively determine the above produced formaldehyde.

[2] = system: monomethylamine-oxidizing enzyme; type: biochemical, Bacillus sp. N - 104 (FERM BP-59); details: pH 9
Protocol: Monomethylamine hydrochloride as substrate is dissolved into 0.1 M KH2 PO4 -Na2 B4 O7 buffer solution (pH 7) and the solution is ordinally adjusted to 1 mM concentration of substrate. To 1.0 ml of this substrate solution, is added 0.1 ml of an enzyme solution diluted with the same buffer solution and the mixture is subjected to reaction for 10 min. at 30° C. By adding 1 ml of 5N KOH solution, the enzymatic reaction is stopped. By this enzymatic reaction, monomethylamine is oxidatively decomposed to produce formaldehyde, ammonia and hydrogen peroxide. Then, to the reaction mixture is added 1 ml of 0.5 N hydrochloric acid solution containing 0.5% 4-amino-3-hydrazino-5-mercapto-1,2,4-triazole (to be abbreviated as AHMT hereinafter) and the mixture is subjected to reaction for 15 min. at 30° C. To the reaction mixture is added 1 ml of 0.2 N potassium hydroxide solution containing 0.75% KIO4 and the mixture is thoroughly stirred to develop a color. The colored solution is poured into a transparent cell and its absorption at 550 nm is measured to quantitatively determine the above produced formaldehyde.

[3] = 1 mM inhibitor, 10 min treatment at 30° C., activity without inhibitor taken as 100
[4] = 5 mM inhibitor, 10 min treatment at 30° C., activity without inhibitor taken as 100

SMILES | Relative activity [1] [%] | further results
CC(C)N [i-Propylamine] | 0 | –
Oc1cccc2cccnc12 [8-oxyquinoline] | – | Residual activity [2]: 34.0%
O=C(O)CI [monoiodoacetic acid] | – | Residual activity [2]: 34.0%
CCN [Ethylamine] | 90 | –
CN [Monomethylamine] | 100 | Km ([1]; pH 9.0): 62 µM
CCCCCN [n-Amylamine] | 19 | –
NCCCCN [Putrescine] | 0 | –
NCc1ccccc1 [Benzylamine] | 1 | –
CN(C)C [Trimethylamine] | 0 | –
NNC(N)=O [semicarbazide hydrochloride] | – | Residual activity [2, 3]: 0%
CC(C)CN [i-Butylamine] | 2 | –
NO [Hydroxylamine] | 0 | –
CCCCCCN [n-Hexylamine] | 10 | –
c1cnc2c(c1)ccc1cccnc12 [O-phenanthroline] | – | Residual activity [2, 4]: 70.9%
NCCc1ccc(O)cc1 [Tyramine] | 0 | –
NCN [Diaminomethane] | 16 | –
NCCN [Ethylenediamine] | 0 | –
CCCN [n-Propylamine] | 60 | –
NCCc1c[nH]cn1 [Histamine] | 1 | –
[Cl][Hg][Cl] [HgCl2] | – | Residual activity [2, 3]: 0%
CCN(CC)C(=S)[S-].[Na+] [sodium diethyldithiocarbamate] | – | Residual activity [2, 4]: 59.3%
N=C(N)NCCCCN [Agmatine] | 1 | –
NC(=O)CI [iodoacetamide] | – | Residual activity [2, 3]: 2.2%
O=C(O)c1cc[c]([Hg][Cl])cc1 [p-chloromercuribenzoic acid] | – | Residual activity [2, 3]: 0.7%
CCCCN [n-Butylamine] | 18 | –
CNC [Dimethylamine] | 0 | –
NCCO [Ethanolamine] | 1 | –
